# Assays:
# [1] = tested on: male obese ZSF1 rats (diabetic nephropathy model); assay: ZSF1 rat study: plasma triglyceride and cholesterol; assay type: in vivo; conditions: for Plasma Triglyceride / plasma cholesterol levels: obese ZSF1 rats; for plasma cholesterol levels: in mg/dL (unit assumed)
# Description: (§1) The effects of Compound A (“A”) on renal function, plasma triglycerides, plasma cholesterol, kidney collagen I, kidney collagen III, renal histology, glomerular filtration rate, fibrosis score, and mRNA gene expression (profibrotic genes and integrin β3) were evaluated in male obese ZSF1 rats (a hybrid F1 of Zucker diabetic fatty rat and spontaneously hypertensive heart failure rat; a diabetic nephropathy model) when administered as in-feed for 28 weeks. Sixty obese male ZSF1 rats were randomized to five groups: Obese control (n=12), Compound A 60 mpk (n=12), Compound A 200 mpk (n=12), Compound A 400 mpk (n=12), Enalapril 10 mpk (n=12); Eight lean male ZSF1 rats were used for normal control. Renal functional changes were monitored by blood and urine analysis following in-feed dosing for 28 weeks. Compound exposure was also monitored during the study.
# [2] = biological target: T1, αvβ3 purified from 293 cells overexpressing αvβ3 (Homo sapiens, UniProt P05106+P06756); assay: SPAV3 binding assay (scintillation proximity)
# T1 construct: made in house; host or cells: 293 cells overexpressing αvβ3
# T1 sequence (P06756 31-889 limits assumed): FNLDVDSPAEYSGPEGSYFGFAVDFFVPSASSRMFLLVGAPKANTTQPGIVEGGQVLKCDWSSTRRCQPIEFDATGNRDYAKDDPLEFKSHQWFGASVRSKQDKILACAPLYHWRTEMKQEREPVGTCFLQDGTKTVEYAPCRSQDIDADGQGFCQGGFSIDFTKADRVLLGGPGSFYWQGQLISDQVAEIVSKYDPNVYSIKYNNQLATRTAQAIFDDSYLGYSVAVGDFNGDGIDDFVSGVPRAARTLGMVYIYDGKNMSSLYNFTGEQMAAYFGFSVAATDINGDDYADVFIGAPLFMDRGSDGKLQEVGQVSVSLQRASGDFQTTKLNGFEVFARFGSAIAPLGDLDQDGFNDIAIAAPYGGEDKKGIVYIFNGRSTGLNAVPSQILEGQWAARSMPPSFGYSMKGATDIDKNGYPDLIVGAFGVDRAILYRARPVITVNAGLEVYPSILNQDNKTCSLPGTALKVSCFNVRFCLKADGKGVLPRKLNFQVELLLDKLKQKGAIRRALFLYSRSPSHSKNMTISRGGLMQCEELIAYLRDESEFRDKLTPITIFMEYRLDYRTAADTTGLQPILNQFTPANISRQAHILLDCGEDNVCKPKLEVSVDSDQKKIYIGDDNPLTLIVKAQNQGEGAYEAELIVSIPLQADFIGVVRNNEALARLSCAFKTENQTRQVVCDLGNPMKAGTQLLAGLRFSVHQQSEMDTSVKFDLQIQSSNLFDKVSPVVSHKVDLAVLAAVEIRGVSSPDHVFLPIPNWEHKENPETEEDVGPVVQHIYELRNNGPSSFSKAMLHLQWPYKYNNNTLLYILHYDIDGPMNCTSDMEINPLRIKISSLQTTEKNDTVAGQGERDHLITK
# T1 sequence (P06756 891-1048 partner limits assumed): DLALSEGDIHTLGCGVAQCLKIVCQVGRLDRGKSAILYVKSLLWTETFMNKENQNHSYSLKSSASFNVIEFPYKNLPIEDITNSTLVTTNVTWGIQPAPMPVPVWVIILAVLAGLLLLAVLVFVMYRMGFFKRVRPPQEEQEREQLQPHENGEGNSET
# T1 sequence (P05106 27-788): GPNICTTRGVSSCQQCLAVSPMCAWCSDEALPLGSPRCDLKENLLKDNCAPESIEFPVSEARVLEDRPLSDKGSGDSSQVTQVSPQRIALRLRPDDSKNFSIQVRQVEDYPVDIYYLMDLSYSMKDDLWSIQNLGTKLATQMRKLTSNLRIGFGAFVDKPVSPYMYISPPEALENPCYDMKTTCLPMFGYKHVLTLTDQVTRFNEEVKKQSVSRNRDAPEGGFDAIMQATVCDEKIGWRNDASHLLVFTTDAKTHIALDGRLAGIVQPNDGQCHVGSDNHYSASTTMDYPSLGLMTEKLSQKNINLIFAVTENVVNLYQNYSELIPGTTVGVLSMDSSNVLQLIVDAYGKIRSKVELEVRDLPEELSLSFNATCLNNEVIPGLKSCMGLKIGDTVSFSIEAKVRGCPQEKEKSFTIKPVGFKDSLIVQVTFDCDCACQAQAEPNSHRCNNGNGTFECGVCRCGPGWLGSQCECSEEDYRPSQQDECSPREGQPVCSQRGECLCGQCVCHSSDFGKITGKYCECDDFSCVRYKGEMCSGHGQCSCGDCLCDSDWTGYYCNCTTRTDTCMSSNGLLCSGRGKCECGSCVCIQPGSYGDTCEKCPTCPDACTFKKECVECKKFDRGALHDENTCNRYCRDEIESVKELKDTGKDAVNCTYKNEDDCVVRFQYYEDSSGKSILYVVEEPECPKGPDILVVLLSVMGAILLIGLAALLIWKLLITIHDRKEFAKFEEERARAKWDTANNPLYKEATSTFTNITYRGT
# Description: • 1. Wheat germ agglutinin Scintillation Proximity Beads (SPA): Amersham • 2. Octylglucopyranoside: Calbiochem • 3. HEPES: Calbiochem • 4. NaCl: Fisher • 5. CaCl2: Fisher • 6. MgCl2: SIGMA • 7. Phenylmethylsulfonylfluoride (PMSF): SIGMA • 8. Optiplate: PACKARD • 9. (S)-3-(4-(2-(6-aminopyridin-2-yl)ethyl)benzamido)-2-((4-(iodo-^125I)phenyl)sulfonamido)propanoic acid as found in WO0046215 (specific activity 500-1000 Ci/mmole) • 10. Test compound • 11. Purified integrin receptor: αvβ3 was purified from 293 cells overexpressing αvβ3 (Duong et al., J. Bone Min. Res., 8:S378, 1993) according to Pytela (Methods in Enzymology, 144:475, 1987) • 12. Binding buffer: 50 mM HEPES, pH 7.8, 100 mM NaCl, 1 mM Ca^2+/Mg^2+, 0.5 mM PMSF • 13. 50 mM octylglucoside in binding buffer: 50-OG buffer
# • 1. Pretreatment of SPA beads: • 500 mg of lyophilized SPA beads were first washed four times with 200 ml of 50-OG buffer and once with 100 ml of binding buffer, and then resuspended in 12.5 ml of binding buffer. • 2. Preparation of SPA beads and receptor mixture • In each assay tube, 2.5 μl (40 mg/ml) of pretreated beads were suspended in 97.5 μl of binding buffer and […] of 50-OG buffer. […] (˜30 ng/μ1) of purified receptor was added to the beads in suspension with stirring at room temperature for 30 minutes. The mixture was then centrifuged at 2,500 rpm in a Beckman GPR Benchtop centrifuge for 10 minutes at 4° C. The pellets were then resuspended in 50 μl of binding buffer and 25 μl of 50-OG buffer. • 3. Reaction • The following were sequentially added into Optiplate in corresponding wells: • (i) Receptor/beads mixture (75 μl) • (ii) 25 μl of each of the following: compound to be tested, binding buffer for total binding or A-8 for non-specific binding (final concentration 1 μM) • (iii) (S)-3-(4-(2-(6-aminopyridin-2-yl)ethyl)benzamido)-2-((4-(iodo-^125I)phenyl)sulfonamido)propanoic acid as found in WO0046215 (specific activity 500-1000 Ci/mmole) in binding buffer (25 μl, final concentration 40 pM) • (iv) Binding buffer (125 μl) • (v) Each plate was sealed with plate sealer from PACKARD and incubated overnight with rocking at 4° C. • 4. Plates were counted using PACKARD TOPCOUNT • 5. % inhibition was calculated as follows: • A=total counts • B=nonspecific counts • C=sample counts
# % inhibition=[{(A−B)−(C−B)}/(A−B)]/(A−B)×100
# [3] = tested on: male obese ZSF1 rats (diabetic nephropathy model); assay: ZSF1 rat study: kidney mRNA expression of profibrotic genes and integrin beta3; assay type: in vivo; conditions: for Collagen I (a1) expression in the kidney / Collagen III (a1) expression in the kidney / Integrin beta3 expression in the kidney / PAI-1 expression in the kidney: obese ZSF1 rats, week 28
# Description: as §1
smiles,measurement,setting,value
"COc1ccc([C@H](CC(=O)O)N2CCN(CCCc3ccc4c(n3)NCCC4)C2=O)cn1 [Compound A, 3-{2-Oxo-3-[3-(5,6,7,8-tetrahydro-[1,8]naphthyridin-2-yl)-propyl]imidazolidin-1-yl}-3 (S)-(6-methoxy-pyridin-3-yl)-propionic acid]",effect on plasma triglyceride levels,[1]; 200 mpk at week 4 and 400 mpk at week 16 and 28,significantly decreased
same,effect on plasma cholesterol levels,"[1]; 200 mpk at week 28 and 400 mpk at week 16, 21, 24, and 28",significantly decreased
same,plasma TG and cholesterol,"[1]; high doses, obese ZSF-1 rats vs untreated obese ZSF-1 rats (summary)",improvement of plasma TG and cholesterol
same,Plasma Triglyceride,"[1]; 60 mpk in-feed, week 2",2535.3 ± 170.6 mg/dL
same,plasma cholesterol levels,"[1]; 60 mpk in-feed, week 2",229.3 ± 9.6
same,Plasma Triglyceride,"[1]; 60 mpk in-feed, week 4",2807.5 ± 143.4 mg/dL
same,plasma cholesterol levels,"[1]; 60 mpk in-feed, week 4",262.7 ± 10.5
same,Plasma Triglyceride,"[1]; 60 mpk in-feed, week 6",2873.2 ± 116.5 mg/dL
same,plasma cholesterol levels,"[1]; 60 mpk in-feed, week 6",261.2 ± 9.9
same,Plasma Triglyceride,"[1]; 60 mpk in-feed, week 8",3187.9 ± 157.1 mg/dL
same,plasma cholesterol levels,"[1]; 60 mpk in-feed, week 8",289.1 ± 9.5
same,Plasma Triglyceride,"[1]; 60 mpk in-feed, week 12",3138.5 ± 168.9 mg/dL
same,plasma cholesterol levels,"[1]; 60 mpk in-feed, week 12",315.4 ± 13.2
same,Plasma Triglyceride,"[1]; 60 mpk in-feed, week 16",3120.3 ± 191.6 mg/dL
same,plasma cholesterol levels,"[1]; 60 mpk in-feed, week 16",357.8 ± 13.3
same,Plasma Triglyceride,"[1]; 60 mpk in-feed, week 21",2933.4 ± 317.5 mg/dL
same,plasma cholesterol levels,"[1]; 60 mpk in-feed, week 21",392.9 ± 20.6
same,Plasma Triglyceride,"[1]; 60 mpk in-feed, week 24",3093.3 ± 355.2 mg/dL
same,plasma cholesterol levels,"[1]; 60 mpk in-feed, week 24",448.0 ± 23.8
same,Plasma Triglyceride,"[1]; 60 mpk in-feed, week 28",3218.7 ± 427.5 mg/dL
same,plasma cholesterol levels,"[1]; 60 mpk in-feed, week 28",495.7 ± 29.4
same,Plasma Triglyceride,"[1]; 60 mpk in-feed, week −2",2046.8 ± 72.0 mg/dL
same,plasma cholesterol levels,"[1]; 60 mpk in-feed, week −2",192.0 ± 4.5
same,Plasma Triglyceride,"[1]; 200 mpk in-feed, week 2",2111.1 ± 123.5 mg/dL
same,plasma cholesterol levels,"[1]; 200 mpk in-feed, week 2",205.4 ± 7.8
same,Plasma Triglyceride,"[1]; 200 mpk in-feed, week 4",2592.4 ± 206.8 mg/dL
same,plasma cholesterol levels,"[1]; 200 mpk in-feed, week 4",243.5 ± 9.2
same,Plasma Triglyceride,"[1]; 200 mpk in-feed, week 6",2534.6 ± 185.5 mg/dL
same,plasma cholesterol levels,"[1]; 200 mpk in-feed, week 6",233.7 ± 9.1
same,Plasma Triglyceride,"[1]; 200 mpk in-feed, week 8",3325.3 ± 189.8 mg/dL
same,plasma cholesterol levels,"[1]; 200 mpk in-feed, week 8",289.3 ± 9.3
same,Plasma Triglyceride,"[1]; 200 mpk in-feed, week 12",3188.3 ± 191.4 mg/dL
same,plasma cholesterol levels,"[1]; 200 mpk in-feed, week 12",315.9 ± 11.2
same,Plasma Triglyceride,"[1]; 200 mpk in-feed, week 16",2930.4 ± 217.5 mg/dL
same,plasma cholesterol levels,"[1]; 200 mpk in-feed, week 16",346.8 ± 12.1
same,Plasma Triglyceride,"[1]; 200 mpk in-feed, week 21",2717.2 ± 199.8 mg/dL
same,plasma cholesterol levels,"[1]; 200 mpk in-feed, week 21",366.7 ± 14.1
same,Plasma Triglyceride,"[1]; 200 mpk in-feed, week 24",2923.8 ± 267.3 mg/dL
same,plasma cholesterol levels,"[1]; 200 mpk in-feed, week 24",415.1 ± 19.6
same,Plasma Triglyceride,"[1]; 200 mpk in-feed, week 28",2632.8 ± 269.6 mg/dL
same,plasma cholesterol levels,"[1]; 200 mpk in-feed, week 28",451.9 ± 23.6
same,Plasma Triglyceride,"[1]; 200 mpk in-feed, week −2",1965.3 ± 83.6 mg/dL
same,plasma cholesterol levels,"[1]; 200 mpk in-feed, week −2",189.5 ± 6.6
same,Plasma Triglyceride,"[1]; 400 mpk in-feed, week 2",2415.9 ± 119.5 mg/dL
same,plasma cholesterol levels,"[1]; 400 mpk in-feed, week 2",229.8 ± 6.0
same,Plasma Triglyceride,"[1]; 400 mpk in-feed, week 4",2763.1 ± 146.9 mg/dL
same,plasma cholesterol levels,"[1]; 400 mpk in-feed, week 4",252.3 ± 5.3
same,Plasma Triglyceride,"[1]; 400 mpk in-feed, week 6",2715.6 ± 111.4 mg/dL
same,plasma cholesterol levels,"[1]; 400 mpk in-feed, week 6",238.9 ± 6.6
same,Plasma Triglyceride,"[1]; 400 mpk in-feed, week 8",3185.0 ± 191.8 mg/dL
same,plasma cholesterol levels,"[1]; 400 mpk in-feed, week 8",278.8 ± 9.5
same,Plasma Triglyceride,"[1]; 400 mpk in-feed, week 12",3086.5 ± 121.3 mg/dL
same,plasma cholesterol levels,"[1]; 400 mpk in-feed, week 12",306.4 ± 7.0
same,Plasma Triglyceride,"[1]; 400 mpk in-feed, week 16",2648.9 ± 167.8 mg/dL
same,plasma cholesterol levels,"[1]; 400 mpk in-feed, week 16",304.6 ± 11.1
same,Plasma Triglyceride,"[1]; 400 mpk in-feed, week 21",2523.9 ± 220.7 mg/dL
same,plasma cholesterol levels,"[1]; 400 mpk in-feed, week 21",351.4 ± 13.8
same,Plasma Triglyceride,"[1]; 400 mpk in-feed, week 24",2439.5 ± 162.4 mg/dL
same,plasma cholesterol levels,"[1]; 400 mpk in-feed, week 24",374.7 ± 12.8
same,Plasma Triglyceride,"[1]; 400 mpk in-feed, week 28",2215.7 ± 179.3 mg/dL
same,plasma cholesterol levels,"[1]; 400 mpk in-feed, week 28",391.2 ± 14.7
same,Plasma Triglyceride,"[1]; 400 mpk in-feed, week −2",2211.5 ± 117.2 mg/dL
same,plasma cholesterol levels,"[1]; 400 mpk in-feed, week −2",195.5 ± 5.5
same,IC50,[2],100 pM
same,effect on expression of key profibrotic genes and integrin beta3 in the kidney vs obese vehicle,[3]; 200 mpk or 400 mpk at week 28,significantly decreased
same,Collagen I (a1) expression in the kidney,[3]; 200 mpk in-feed,0.79 ± 0.04
same,Collagen III (a1) expression in the kidney,[3]; 200 mpk in-feed,0.60 ± 0.03
same,Integrin beta3 expression in the kidney,[3]; 200 mpk in-feed,0.83 ± 0.03
same,PAI-1 expression in the kidney,[3]; 200 mpk in-feed,0.80 ± 0.03
same,Collagen I (a1) expression in the kidney,[3]; 400 mpk in-feed,0.66 ± 0.02
same,Collagen III (a1) expression in the kidney,[3]; 400 mpk in-feed,0.52 ± 0.01
same,Integrin beta3 expression in the kidney,[3]; 400 mpk in-feed,0.74 ± 0.03
same,PAI-1 expression in the kidney,[3]; 400 mpk in-feed,0.66 ± 0.03

# — patent US20180110762A1, “Compositions Methods for Treating Chronic Kidney Disease” (Merck Sharp & Dohme Corp, priority 2015, published 2018)
